The record followed here is ChEMBL document CHEMBL1133819, “Structure-based design of caspase-1 inhibitor containing a diphenyl ether sulfonamide” (Bioorg Med Chem Lett, 2001).

Test [1] concerns the target T1, Caspase-1 (Homo sapiens, UniProt P29466).
T1 sequence (P29466 whole entry): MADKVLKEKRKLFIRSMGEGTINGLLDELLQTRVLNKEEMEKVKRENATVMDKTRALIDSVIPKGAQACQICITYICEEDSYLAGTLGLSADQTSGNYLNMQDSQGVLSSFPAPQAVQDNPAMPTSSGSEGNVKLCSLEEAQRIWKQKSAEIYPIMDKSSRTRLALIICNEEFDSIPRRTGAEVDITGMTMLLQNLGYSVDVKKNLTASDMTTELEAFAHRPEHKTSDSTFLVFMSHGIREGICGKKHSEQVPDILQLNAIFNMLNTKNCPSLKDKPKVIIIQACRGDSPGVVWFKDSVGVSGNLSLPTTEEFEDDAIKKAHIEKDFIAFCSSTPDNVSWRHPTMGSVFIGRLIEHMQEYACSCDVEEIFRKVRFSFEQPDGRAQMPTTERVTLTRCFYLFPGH
Nature of the test: Inhibitory concentration against caspase-1 was determined.

Test [2] has as its target T1, Caspase-1. Nature of the test: Binding affinity towards caspase-1 was determined.

Compound `CC(C)c1ccc(Oc2ccccc2S(=O)(=O)N[C@H](C=O)C(=O)O)cc1` displayed an IC50 at Caspase-1 [1] of 5.3 µM. In addition, the Ki at Caspase-1 [2] was found to be 0.62 µM.
Consider `O=C[C@@H](NS(=O)(=O)c1ccccc1Oc1ccc(-c2ccc(C(=O)O)cc2)cc1)C(=O)O`, for which, at Caspase-1 [1], the IC50 worked out at 58 µM. In addition, the Ki at Caspase-1 [2] is 4.2 µM.
On the same counts, the results for `Cc1ccc(Oc2ccccc2S(=O)(=O)N[C@H](C=O)C(=O)O)cc1` are 9 µM and 1.1 µM.
As to `O=C[C@@H](NS(=O)(=O)c1ccccc1-c1ccccc1)C(=O)O`, half-maximal inhibition against Caspase-1 [1] (IC50) was put at 20 µM. Also, the Ki at Caspase-1 [2] came to 1.6 µM.
The like results for `CCC(C)c1ccc(Oc2ccccc2S(=O)(=O)N[C@H](C=O)C(=O)O)cc1C` (some centres undefined) were, in that order, 1 µM and 0.1 µM.
The like results for `CC(C)c1cccc(Oc2ccccc2S(=O)(=O)N[C@H](C=O)C(=O)O)c1` were, in that order, 3.7 µM and 0.41 µM.
The like results for `Cc1cc(Oc2ccccc2S(=O)(=O)N[C@H](C=O)C(=O)O)ccc1C(C)C` were, in that order, 1 µM and 0.11 µM.
Take `O=C[C@@H](NS(=O)(=O)c1ccccc1Oc1ccc(C2CCCC2)cc1)C(=O)O`: the IC50 against Caspase-1 [1] came to 4.8 µM. At Caspase-1 [2], this compound yielded a Ki of 0.88 µM.
On the same counts, the results for `O=C[C@@H](NS(=O)(=O)c1ccccc1Oc1ccc(C2CCCCC2)cc1)C(=O)O` are 4.3 µM and 0.9 µM.
The like results for `O=C[C@@H](NS(=O)(=O)c1ccccc1Oc1ccccc1)C(=O)O` were, in that order, 24 µM and 24 µM.
Consider `O=C[C@@H](NS(=O)(=O)c1ccccc1Oc1ccc(-c2ccccc2)cc1)C(=O)O`, for which the IC50 against Caspase-1 [1] came to 4.4 µM. The same compound yielded a Ki on Caspase-1 [2] of 0.29 µM.
On the same counts, the results for `Cc1ccccc1Oc1ccccc1S(=O)(=O)N[C@H](C=O)C(=O)O` are 14 µM and 3 µM.
On the same counts, the results for `Cc1cccc(Oc2ccccc2S(=O)(=O)N[C@H](C=O)C(=O)O)c1` are 11 µM and 0.43 µM.
Take `Cc1cccc(Oc2ccccc2S(=O)(=O)N[C@H](C=O)C(=O)O)c1C`: the IC50 against Caspase-1 [1] amounted to 13 µM. The Ki on Caspase-1 [2] was determined as 1 µM.
On the same counts, the results for `CCC(C)c1ccc(Oc2ccccc2S(=O)(=O)N[C@H](C=O)C(=O)O)cc1` (some centres undefined) are 2.2 µM and 0.49 µM.
Take `CCC(CC)c1ccc(Oc2ccccc2S(=O)(=O)N[C@H](C=O)C(=O)O)cc1`: the IC50 against Caspase-1 [1] turned out to be 3.5 µM. The compound also yielded a Ki at Caspase-1 [2] of 0.44 µM.
On the same counts, the results for `Cc1cc(Oc2ccccc2S(=O)(=O)N[C@H](C=O)C(=O)O)cc(C)c1C` are 7.8 µM and 0.45 µM.
